Measurements published in US6403589B1, “Method of treating pain with draflazine-analogues” (Janssen Pharmaceutica N.V., priority 1997, dated 2002).
Each block holds one compound with its values, some of them ahead of it.

Legend:
[1] = tested on: patients with unstable angina; conditions: during the 24 hour observation period; draflazine treated patients with unstable angina; cited from earlier work
[2] = tested on: rabbits; conditions: acute pain stimulus; cited from earlier work
[3] = tested on: dogs; conditions: acute pain stimulus; cited from earlier work
[4] = tested on: mice; conditions: acute pain stimulus; cited from earlier work

Structure (SMILES): NC(=O)[C@@H]1CN(CCCCC(c2ccc(F)cc2)c2ccc(F)cc2)CCN1CC(=O)Nc1c(Cl)cc(N)cc1Cl [Compound 13, S-(−)-2-(aminocarbonyl)-N-(4-amino-2,6-dichlorophenyl)-4-[5,5-bis(4-fluorophenyl)-pentyl]-1-piperazineacetamide]
mean duration of chest pain [1]: 75.5 min

Structure (SMILES): Cc1cccc(C)c1NC(=O)CN1CCN(CCCC(c2ccc(F)cc2)c2ccc(F)cc2)CC1 [lidoflazine]
pain treshold to electrical stimulation of incisor teeth [2]: increased
pain treshold to electrical stimulation of canine teeth [3]: not
reaction time to thermal stimulation [4]: significantly increased

Structure (SMILES): CNC(=O)C1CN(CC(=O)Nc2c(C)cc(C)cc2C)CCN1CCCC(c1ccc(F)cc1)c1ccc(F)cc1 (stereo not shown) [Compound 1, 4-[4,4-bis(4-fluorophenyl)butyl]-3-[(methylamino)-carbonyl]-N-(2,4,6-trimethylphenyl)-1-piperazineacetamide]
melting point: 82.3 °C

Next, values leading:

melting point: 90.2 °C
Structure (SMILES): CNC(=O)C1CN(CCCC(c2ccc(F)cc2)c2ccc(F)cc2)CCN1CC(=O)Nc1c(C)cc(C)cc1C (stereo not shown) [Compound 2, 4-[4,4-bis(4-fluorophenyl)butyl]-2-[(methylamino)carbonyl]-N-(2,4,6-trimethylphenyl)-1-piperazineacetamide]

melting point: 140 °C
Structure (SMILES): CNC(=O)C1CN(CC(=O)Nc2c(Cl)cccc2C(C)=O)CCN1CCCC=C(c1ccc(F)cc1)c1ccc(F)cc1.O=C(O)C(=O)O.O=C(O)C(=O)O (racemic) [Compound 18, (±)-N-(2-acetyl-6-chlorophenyl)-4-[5,5-bis(4-fluorophenyl)-4-pentenyl]-3-[(methylamino)carbonyl]-1-piperazineacetamide ethanedioate (1:2)]
